In US9126999B2, “Tetrahydropyrazolopyrimidine compounds” (EISAI R&D MANAGEMENT CO., LTD., priority 2012, dated 2015):
“Also recorded” adds a separate entry of the source.

System: NZBWF1/J mice
Experiment: NZBxNZW strain lupus disease model
Format: in vivo, mouse
Settings: NZB/W model; for anti-dsDNA titers: QD PO; for proteinuria: UACR
Method: Figure Legend: Female NZBWF1/J mice were received at 6 weeks of age, baseline bleeds were performed, and mice were monitored for disease progression by following anti-dsDNA titers. At 20 weeks of age, mice were randomized into groups with equivalent median anti-dsDNA titers and treated at 23 weeks of age with Vehicle (Veh; 0.5% methyl-cellulose) alone or 33, 100, or 300 mg/kg ER-892887 once-a-day orally (QD PO). All mice were sacrificed at 45 weeks of age (22 weeks total treatment) and blood plasma anti-dsDNA titers were determined by ELISA. (A) Impact of ER-892887 treatment over time on anti-dsDNA titers. (B) Bar graph of +22 weeks treatment data for ER-892887 derived from data shown in (A). (C) Just prior to termination at 45 weeks of age (following 22 weeks of treatment), urine was collected from individual mice, and the Urinary Albumin Creatinine Ratio (UACR, proteinuria) was determined for each animal as an indirect measure of kidney function. (D) Summary of mortality observed in this study. (E) At the time of sacrifice, kidneys were collected from individual mice, fixed in 10% formalin for 24 hours, embedded in paraffin, and H&E stained sections were generated for histopathology assessment in a blinded fashion. Statistical significance was determined by Mann-Whitney test for (C).
Figure Legend. Female NZBWF1/J mice were received at 8 weeks of age, baseline bleeds were performed, and mice were monitored for disease progression by following anti-dsDNA titers. At 24 weeks of age, mice were randomized into groups with equivalent median anti-dsDNA titers and treated at 25 weeks of age QD PO with Vehicle (Veh; 0.5% methyl-cellulose) alone or 33, 100, or 300 mg/kg ER-892887. Anti-dsDNA titers were determined by ELISA on blood plasma samples at the time points indicated. (A) Impact of compound treatment on median anti-dsDNA titers over time up to +17 weeks of treatment. (B) Impact of compound treatment on median anti-dsDNA at the +13 weeks of treatment time point only from data shown in (A). (C) After 13 weeks (top graph) or 17 weeks (bottom graph) of compound treatment, urine was collected from individual mice, and the Urinary Albumin Creatinine Ratio (UACR, proteinuria) was determined for each animal as an indirect measure of kidney function. Mice indicated within the circle with high UACR were those animals that died between the +13 wks and +17 wks of treatment (statistical significance was determined by Mann-Whitney test). (D) Blood urea nitrogen (BUN) measured in the plasma from select groups after 13 weeks of treatment. (E) Mortality curves for Vehicle versus compound treated mice up to 17 weeks of treatment. […] (F) Summary of mortality observed in this study.
Figure Legend: Female NZBWF1/J mice were received at 6 weeks of age, baseline bleeds were performed, and mice were monitored for disease progression by following anti-dsDNA titers. At 24 weeks of age, mice were randomized into groups with equivalent median anti-dsDNA titers and treated with Vehicle (Veh; 0.5% methyl-cellulose) alone or 300 mg/kg ER-885454 once-a-day orally (QD PO). All mice were sacrificed at 47 weeks of age (23 weeks total treatment) and blood plasma anti-dsDNA titers were determined by ELISA (A). (B) Just prior to termination at 47 weeks of age, urine was collected from individual mice, and Urinary Albumin Creatinine Ratio (UACR, proteinuria) was determined for each animal as an indirect measure of kidney function. (C) At the time of sacrifice, kidneys were collected from individual mice, fixed in 10% formalin for 24 hours, embedded in paraffin, and H&E stained sections were generated for histopathology assessment in a blinded fashion. Statistical significance was determined by Mann-Whitney test for (A) above.
Figure Legend: Female NZBWF1/J mice were received at 4 weeks of age, baseline bleeds were performed at 10 and 26 weeks, and mice were monitored for disease progression by following anti-dsDNA titers and proteinuria. […]

| Compound | histological signs of glomerulonephritis | anti-dsDNA titers | proteinuria | delay of development of proteinuria compared with two drugs commonly used in the treatment of human lupus | efficacy in combination with hydroxychloroquine and prednisolone | survival (vs. Vehicle, 33-100 mg/kg QD PO, long-term dosing) |
| --- | --- | --- | --- | --- | --- | --- |
| COc1ccc([C@@H]2C[C@H](C(F)(F)F)n3nc(-c4ccncc4)cc3N2)cc1OC [ER-885454] | reduced | reduced | reduced |  |  |  |
| COc1ccc([C@@H]2C[C@H](C(F)(F)F)n3nc(-c4ccc(C(=O)N5CCNCC5)cc4)cc3N2)cc1OC [ER-892887, (4-((5S,7R)-5-(3,4-dimethoxyphenyl)-7-(trifluoromethyl)-4,5,6,7-tetrahydropyrazolo[1,5-a]pyrimidin-2-yl)phenyl)(piperazin-1-yl)methanone] | reduced | reduced | reduced proteinuria | more effectively | efficacious | statistically significant survival benefit; also recorded: afforded survival benefit; also recorded: significantly enhanced survival |
